Source: patent US20150190404A1, “TREATING SEIZURES USING ICE INHIBITORS” (Vertex Pharmaceuticals Incorporated, priority 2004, published 2015)
Values joined by “and” are separate entries in the source; they are usually repeats but may differ in a detail not shown here. Equal entries are not always repeated. “Also recorded” adds a separate entry of the source.

Legend:
[1] = tested on: kainic acid-induced seizures; experiment: Kainic acid-induced EEG seizures, compound given intracerebroventricularly (Example 1); type: in vivo, male adult Sprague-Dawley rats; conditions: individual rats, 25 μg/4 μl icv
Description: An experimental model of seizures in male adult Sprague-Dawley rats was induced by unilateral microinjection of kainic acid (40 ng in 0.5 μl) in the dorsal hippocampus of freely-moving rats using chronically-implanted cannulae and electrodes. Briefly, animals were deeply anesthetized using Equithesin (1% […] and 4% chloral hydrate; 3 ml/kg, i.p.). Bipolar nichrome wire insulated electrodes (60 μm) were implanted bilaterally into the dentate gyrus of the dorsal hippocampus (septal pole), and a guide cannula (22 gauge) was unilaterally positioned on top of the dura and glued to one of the depth electrodes for the intrahippocampal injection of kainic acid. The coordinates from bregma for implantation of the hippocampal electrodes were (in mm: nose bar -2.5, AP -3.5, L ±2.4 and 3 below dura mater). An additional guide cannula was unilaterally positioned on top of the dura mater for intracerebroventricular injection of compounds (in mm, nose bar -2.5; AP -1; L +1.5). A ground lead was positioned over the nasal sinus and two screw electrodes were placed bilaterally over the parietal cortex. The electrodes were connected to a multipin socket (March Electronics, NY) and, together with the injection cannula, were secured to the skull by acrylic dental cement.

[2] = tested on: kainic acid-induced seizures; experiment: Kainic acid-induced EEG seizures, compound 1 given intraperitoneally (Example 2); type: in vivo, rats
Description: An experimental model of seizures in rats was induced by unilateral microinjection of kainic acid (40 ng in 0.5 μL) in the dorsal hippocampus of freely-moving rats using chronically-implanted cannulae. […] EEG seizures were recorded using chronically-implanted hippocampal electrodes. […] See, Example 4, where a higher dose of compound 2 produced statistically significant effects.

[3] = tested on: IL-1β; experiment: Western blot of IL-1β in hippocampal homogenates after kainate seizures; type: in vivo, rats; conditions: 25 μg/4 μL icv 45 and 10 min before kainic acid 40 ng, 90 min after seizures
From the text: See Example 1 and Example 6.

[4] = tested on: seizures; experiment: Rodent seizure model, general statements on anti-convulsant activity; conditions: in vivo
From the text: The examples provided herein involve an rodent seizure model that is recognized as a good model of human epilepsy and convulsions disorders.

[5] = tested on: rheumatoid arthritis; conditions: Pavelka et al. 2002, 285 patient PHII trial; cited from earlier work
[6] = tested on: kainic acid-induced seizures; experiment: Effect of ibuprofen on kainic acid-induced EEG seizures (Example 5); type: in vivo, Rats; conditions: for Status Epilepticus (time in status epilepticus) / Onset / No. of Seizures / Time in Seizures: 50 mg/kg
Description: EEG seizures were induced in adult male Sprague-Dawley rats by intrahippocampal injection of 40 ng kainic acid (KA) using a chronically-implanted cannula. EEG seizures were recorded using chronically-implanted hippocampal electrodes. Ictal and interictal epileptic activity was quantified quantified by EEG analysis based on the following parameters: 1) the time to onset of the first ictal episode, 2) the number of ictal episodes during the 3 hours of recording, and 3) the time spent in ictal activity reckoned by adding together the duration of each ictal event. Compound 2 or its vehicle were injected intraperitoneally for 3 consecutive days (50-200 mg/kg). The 4th day, rats received compound 2, 45 and 10 min before the intrahippocampal injection of 40 ng in 0.5 μl kainic acid.
The effect of ibuprofen on seizures was also examined using the methods described in Example 4. Rats received ibuprofen (50 mg/kg, i.p.) 60 min. before unilateral intrahippocampal injection of […] in 0.5 μl kainic acid. Controls (vehicle) received saline *p<0.05 vs. vehicle by Student's t-test. Seizures were analyzed and quantified by EEG. Status epilepticus represents continuous seizure activity lasting more than 30 min. consecutively.

[7] = individual rats, 30 mg/kg intraperitoneally, 45 and 10 min before 40 ng kainic acid, 30 mg/kg
[8] = individual rats, i.p. 60 min. before kainic acid

CCO[C@@H]1OC(=O)C[C@@H]1NC(=O)[C@@H]1CCCN2C(=O)CC[C@H](NC(=O)c3nccc4ccccc34)C(=O)N12 [Compound 1]
Time in ictal activity ([1]; 45 and 10 min before 40 ng kainic acid): 36.0 min (2×) and 30.0 min and 42.0 min (2×) and 34.0 min and 41.0 min
ONSET (time to onset of the first ictal episode) ([1]; 45 and 10 min before 40 ng kainic acid in left hippocampus): 15.0 min and 20.0 min and 14.0 min (2×) and 18.0 min and 13.6 min and 9.0 min and 12.0 min
No. of ictal episodes ([1]; 45 and 10 min before 40 ng kainic acid, 3 hours of recording): 28 and 29 and 30 (3×) and 37 and 31 and 33
reduction of the total time spent in ictal activity ([2]; 30 mg/kg intraperitoneally, vs vehicle, did not reach statistical significance): −30%
No. of ictal episodes ([2]; Mean ± SE, 30 mg/kg intraperitoneally, vehicle 20.8 ± 2.5): 20.5 ± 2.3
Time in ictal activity ([2]; Mean ± SE, 30 mg/kg intraperitoneally, vehicle 36.6 ± 6.9): 25.6 ± 2.8 min
ONSET (time to onset of the first ictal episode) [2, 7]: 10.5 min and 12 min and 14 min and 9 min (2×) and 23 min and 13 min and 11 min
Time in ictal activity [2, 7]: 9 min and 32 min and 27 min and 20 min and 34 min and 25 min and 30 min and 28 min
No. of ictal episodes ([2]; individual rats, 30 mg/kg intraperitoneally, 45 and 10 min before 40 ng kainic acid, 3 hours of recording, 30 mg/kg): 8 and 23 (2×) and 29 and 17 and 25 (2×) and 16
seizure inhibition / anti-convulsant activity ([2]; intraperitoneal (peripheral) route): inhibit seizures; also recorded: have anti-convulsant activity when administered peripherally
mature active 17 kD IL-1β in hippocampus [3]: blocked the seizure-induced production; also recorded: reduced the formation mature active 17 kD IL-1β
anti-convulsant activity in the rodent seizure model [4]: as effective as high doses of either phenytoin or carbamazepine
anti-inflammatory activity in rheumatoid arthritis patients [5]: anti-inflammatory activity

CC(C)Cc1ccc(C(C)C(=O)O)cc1 (stereo not shown) [Ibuprofen]
Status Epilepticus (time in status epilepticus) ([6]; Mean ± SE of (5) rats, i.p., vehicle —): 74.4 ± 2.6
Status Epilepticus (time in status epilepticus) ([6]; Mean ± SE of (5) rats, i.p., vehicle —, listed as ibuprofen): increased the time in status epilepticus
Onset ([6]; Mean ± SE, i.p., vehicle 13.2 ± 2.1): 13.0 ± 1.7 min
No. of Seizures ([6]; Mean ± SE, i.p., vehicle 16.6 ± 1.0): 11.7 ± 1.0
Time in Seizures ([6]; Mean ± SE, i.p., vehicle 21.1 ± 1.1): 10.8 ± 0.6 min
Onset ([6]; individual rats, i.p. 60 min. before intrahippocampal 40 μg in 0.5 μl kainic acid): 14.4 min and 7.9 min and 11.0 min and 12.3 min and 13.3 min and 21.4 min and 10.0 min
No. of Seizures [6, 8]: 13 (2×) and 10 (2×) and 12 and 16 and 8
Time in Seizures [6, 8]: 13.0 min and 8.4 min and 11.0 min and 12.5 min and 11.2 min and 9.8 min and 9.4 min
Status Epilepticus (time in status epilepticus) ([6]; individual rats, i.p., continuous seizure activity lasting more than 30 min., all vehicle rats —): 75 and 66.6 and 80 (2×) and 70
seizure activity compared to vehicle ([6]; intraperitoneal route): increased the seizure activity compared to vehicle

NC(=O)N1c2ccccc2C=Cc2ccccc21 [carbamazepine]
anti-convulsant activity in the rodent seizure model [4]: exhibit anti-convulsant activity

O=C1NC(=O)C(c2ccccc2)(c2ccccc2)N1 [phenytoin]
anti-convulsant activity in the rodent seizure model [4]: exhibit anti-convulsant activity
